Test results from patent US20060058268A1, “Compounds and methods for treating diabetic vascular diseases” (priority 2004, published 2006).

How the values were obtained:
VCAM-1 = VCAM-1 assay with ELISA readout (Examples 5-6); assay type: cell-based; settings: for IC50: TNF added with compound, incubated overnight (approximately 16 hours)
Method: Two to four confluent P150 plates are trypsinized and the cells transferred to a 50 mL conical centrifuge tube. The cells are pelleted, resuspended, and counted using the trypan blue exclusion method.
Cells are resuspended at a concentration of 36,000 cells/mL and 1 mL is aliquoted per well.
Cells are split into 24 well tissue culture plates. The cells in each well should be approximately 90-95% confluent by the following day. Cells should not be older than passage 8.
Compounds are initially screened at 50 μM and 10 μM. A 50 mM stock solution for each compound is prepared in culture medium. The stock solution is diluted to 5 mM and 1 mM. When 10 μL of the 5 mM solution is added to the well (1 mL medium/well), the final concentration will be 50 μM. Adding 10 μL of the 1 mM solution to the well will give a final concentration of 10 μM.
Compounds which will not go into solution in culture medium are resuspended in DMSO at a concentration of 25 mM. The stock solution is then diluted to the final concentration in culture medium. The old medium is aspirated and 1 mL of the new medium with the compound is added. For example, if the final concentration is 50 µM, the 2 μL of the 25 mM stock is added per mL of culture medium. The […] solution is diluted for lower concentrations.
The compounds are added to the plate (each compound is done in duplicate). One plate is done for VCAM expression and one plate is done for ICAM expression.
Immediately after the compounds are added, TNF is added to each well. 100 units/mL TNF is usually added to each well. Since each lot of TNF varies in the number of units, each new lot is titrated to determine the optimum concentration. Therefore this concentration will change. If 100 units/mL is being used, dilute the TNF to 10 units/μL and add 10 μL to each well.
(§1) The plates are incubated at 37° C., 5% CO2 overnight (approximately 16 hours). The next day the plates are checked under the microscope to see if there are any visual signs of toxicity. Records are made of any cell death, debris, or morphology changes, as well as insoluble compounds (particulate or turbity).
In order to assess MCP-1, the media (500 μL) is saved and frozen at −70° C. Wash cells once with roughly 1 ml/well of Hanks Balance Salt Solution (HBSS) or PBS. Gently empty the wash solution and then tap the plate onto paper towels. Add either 250 μL/well of HBSS+5% FCCS to the plank (no primary antibody wells) or 250 μL/well of primary antibody diluted in HBSS+5% FCS. Incubate for 30 minutes at 37° C. Wash the wells twice with 0.5 mL/well HBSS or PBS and gently tap the plates onto paper towels after the last wash. Add 250 μL/well of HRP-conjugated second antibody diluted in HBSS+5% FCS to every well including the blank wells (no primary antibody). Incubate at 37° C. for 30 minutes. Wash the wells four times with 0.5 mL/well HBSS or PBS and gently tap the plates onto paper towels after the last wash. Add 250 μL/well of substrate solution. Incubate at room temperature in the dark until there is adequate color development (blue). Note the length of time incubation was performed (typically 15-30 minutes). Add 75 μL/well stopper solution (8N sulfuric acid), and read at 450 nm.

cells = assay type: cell-based; parameters: unit not given beside the values
Method: as §1

Row | IC50 (VCAM-1; 16 h) | Compound | IC50 (VCAM-1) | LD50 (cells) | other results
1 |  | CC(C)(C)c1cc(SCCCC(=O)O)cc(C(C)(C)C)c1O [2,6-di-tert-butyl-4-thio(butanoic acid)phenol] | 75 µM | 200 | 
2 |  | CC(=O)Oc1ccc(CSc2cc(C(C)(C)C)c(O)c(C(C)(C)C)c2)cc1 [2,6-di-tert-butyl-4-thio(4′-acetoxybenzyl)phenol] | 18 µM | 75 | 
3 |  | Butanedioic acid, (1-methylethylidine)bis[thio[2,6-bi(1,1-dimethylethyl)-4,1-phenylene}}ester | > 50 µM | 25 | 
4 |  | CC(C)(C)c1cc(SCc2ccc([N+](=O)[O-])cc2)cc(C(C)(C)C)c1O [2,6-di-tert-butyl-4-thio(4′-nitrobenzyl)phenol] | 10 µM | 200 | 
5 |  | CC(C)(C)c1cc(S(=O)(=O)Cc2ccc([N+](=O)[O-])cc2)cc(C(C)(C)C)c1O [2,6-di-tert-butyl-4-(sulfonyl-(4′-nitrobenzyl))phenol] | 40 µM | 100 | 
6 |  | CC(C)(Sc1cc(C(C)(C)C)c(O)c(C(C)(C)C)c1)Sc1cc(C(C)(C)C)c(OCc2ccc([N+](=O)[O-])cc2)c(C(C)(C)C)c1 [Phenol, 4-[[1-[3,5-bis(1,1-dimethylethyl)4-[(4-nitrophenyl)methoxy]phenyl]thio]-1-methylethyl]thio]2,6-bis(1,1-dimethylethyl)-] |  | >100 | VCAM-1 inhibition at [μM] (VCAM-1; at 50 μM): 30% at 50
7 |  | CC(C)(C)c1cc(SCc2ccc(C(=O)O)o2)cc(C(C)(C)C)c1O [2,6-di-tert-butyl-4-thio((2′-furancarboxylic acid)-5-methyl)phenol] | 40 µM | 400 | 
8 |  | CC(C)(C)c1cc(SCc2ccc(CCO)cc2)cc(C(C)(C)C)c1O [2,6-di-tert-butyl-4-thio(4′-(methyl)phenylethyl alcohol))phenol] | 15 µM | 50 | 
9 |  | CC(C)(C)c1cc(SCCc2ccc([N+](=O)[O-])cc2)cc(C(C)(C)C)c1O [2,6-di-tert-butyl-4-thio(4′-nitrophenethyl)phenol] | 15 µM | 0.4 | 
10 |  | CC(C)(C)c1cc(SCc2ccc(C(F)(F)F)cc2)cc(C(C)(C)C)c1O [(2,6-di-tert-butyl-4-thio(4′-(trifluoromethyl)benzyl)phenol] | 5 µM | 300 | 
11 |  | CCCCC(OC(C)=O)Sc1cc(C(C)(C)C)c(O)c(C(C)(C)C)c1 (stereo not drawn) [2,6-di-tert-butyl-4-thio((1′-(acetoxy))pentyl)phenol] |  | 100 | 
12 | 75 µM | C=CC(=O)OCCCCOc1c(C(C)(C)C)cc(SC(C)(C)Sc2cc(C(C)(C)C)c(O)c(C(C)(C)C)c2)cc1C(C)(C)C [2-Propenoic acid, 4-[4-[[1-[[3,5-bis(1,1-dimethylethyl)-4-hydroxyphenyl]thio]-1-methylethyl]thio]-2,6-bis(1,1-dimethylethyl)phenoxy]butyl ester] |  |  | 
13 | 30 µM | CC(C)(Sc1cc(C(C)(C)C)c(O)c(C(C)(C)C)c1)Sc1cc(C(C)(C)C)c(OCC(O)CO)c(C(C)(C)C)c1 (stereo not drawn) [1,2-Propanediol, 3-[4-[[1-[[3,5-bis(1,1-dimethylethyl)-4-hydroxyphenyl]thio]-1-methylethyl]thio]-2,6-bis(1,1-dimethylethyl)phenoxy]-] |  |  | 
14 | 110 µM | CC(C)(CO)CC(=O)Oc1c(C(C)(C)C)cc(SC(C)(C)Sc2cc(C(C)(C)C)c(O)c(C(C)(C)C)c2)cc1C(C)(C)C [Butanoic acid, 4-hydroxy-3,3-dimethyl-, 4-[[1-[[3,5-bis(1,1-dimethylethyl)-4-hydroxyphenyl]thio]-1-methylethyl]thio]-2,6-bis(1,1-dimethylethyl)phenyl ester] |  |  | 
15 | 10 µM | CC(C)(Sc1cc(C(C)(C)C)c(O)c(C(C)(C)C)c1)Sc1cc(C(C)(C)C)c(OCC(=O)O)c(C(C)(C)C)c1 [Acetic acid, [4-[[1-[[3,5-bis(1,1-dimethylethyl)-4-hydroxyphenyl]thio]-1-methylethyl]thio]2,6-bis(1,1-dimethylethyl)phenoxy]-] |  |  | 
16 | 19 µM | CC(C)(Sc1ccc(OCCCC(=O)O)cc1)Sc1cc(C(C)(C)C)c(O)c(C(C)(C)C)c1 [Butanoic acid, 4-[4-[[1-[[3,5-bis(1,1-dimethylethyl)-4-hydroxyphenyl]thio]-1-methylethyl]thio]phenoxy]-] |  |  | 
17 | 5 µM | CC(C)(Sc1cc(C(C)(C)C)c(O)c(C(C)(C)C)c1)Sc1cc(C(C)(C)C)c(OC(=O)CN)c(C(C)(C)C)c1 [Glycine, 4-[[1-[[3,5-bis(1,1-dimethylethyl)-4-hydroxyphenyl]thio]-1-methylethyl]thio]-2,6-bis(1,1-dimethylethyl)phenyl ester] |  |  | 
18 |  | CC1(C)OC2OC(COc3c(C(C)(C)C)cc(SC(C)(C)Sc4cc(C(C)(C)C)c(O)c(C(C)(C)C)c4)cc3C(C)(C)C)C3OC(C)(C)OC3C2O1 [α-D-Galactopyranose, 6-O-[4-[[1-[[3,5-bis(1,1-dimethylethyl)-4-hydroxyphenyl]thio]-1-methylethyl]thio]-2,6-bis(1,1-dimethylethyl)phenyl]-1,2:3,4-bis-O-(1-methylethylidene)] | 45 µM |  | 
19 |  | Pentanedioic acid, (1-methylethylidene)bis(thio{2,6-bis(1,1-dimethylethyl)-4,1-phenylene)]ester | > 50 µM |  | 
20 | 55 µM | CN(C)c1ccc(CCOc2c(C(C)(C)C)cc(SC(C)(C)Sc3cc(C(C)(C)C)c(O)c(C(C)(C)C)c3)cc2C(C)(C)C)cc1 [Phenol, 4-[[1-[[4-[2-[4-(dimethylamino)phenyl]ethoxy]-3,5-bis(1,1-dimethylethyl)phenyl]thio]-1-methylethyl]thio]-2,6-bis(1,1-dimethylethyl)-] |  |  | 
21 | 30 µM | CC(C)(Sc1cc(C(C)(C)C)c(O)c(C(C)(C)C)c1)Sc1cc(C(C)(C)C)c(O/C=C/C(=O)O)c(C(C)(C)C)c1 [2-Propenoic acid, 3-[4-[[1-[[3,5-bis(1,1-dimethylethyl)-4-hydroxyphenyl]thio]-1-methylethyl]thio]-2,6-bis(1,1-dimethylethyl)phenoxy]-, (E)-] |  |  | 
22 |  | Cc1cc(SC(C)(C)Sc2cc(C(C)(C)C)c(O)c(C(C)(C)C)c2)cc(C)c1OC(=O)CN [Glycine, 4-[[1-[[3,5-bis(1,1-dimethylethyl)-4-hydroxyphenyl]thio]-1-methylethyl]thio]-2,6-dimethylphenyl ester] |  |  | inhibition at 20 µM (VCAM-1; at 20 μM): 10%
23 |  | 2,6-di-tert-butyl-4-thio(3′,5′-ditert-butyl,4′-hydroxy butanedioic acid ester)phenol | 6 µM |  | 
24 |  | CC(C)(Sc1cc(C(C)(C)C)c(O)c(C(C)(C)C)c1)Sc1cc(C(C)(C)C)c(OC(=O)CCC(=O)O)c(C(C)(C)C)c1 [Butanedioic acid, mono [4-[[1-[[3,5-bis(1,1-dimethylethyl)-4-hydroxyphenyl]thio]-1-methylethyl]thio]2,6-bis(1,1-dimethylethyl)phenyl] ester] | 5.6 µM |  | 
25 |  | Oxiranemethanol, α-[[[3-[[4-[[1-[[3,5-bis(1,1-dimethylethyl)-4-hydroxyphenyl]thio]-1-methylethyl]thio]-2,6-bis(1,1-dimethylethyl)phenoxy]methyl]oxiranyl]methoxy]methyl]- | 60 µM |  | 
26 |  | CC(C)(Sc1cc(C(C)(C)C)c(O)c(C(C)(C)C)c1)Sc1cc(C(C)(C)C)c(OC[C@H]2O[C@@H](O)[C@H](O)[C@@H](O)[C@@H]2O)c(C(C)(C)C)c1 [β-D-Glucopyranose, 6-O-[4-[[1-[[3,5-bis(1,1-dimethylethyl)-4-hydroxyphenyl]thio]-1-methylethyl]thio]-2,6-bis(1,1-dimethylethyl)phenyl]-] |  |  | inhibition at 50 µM (VCAM-1; at 50 μM): 30%
